Measurements as given in ChEMBL document CHEMBL3045199, “Synthesis of some (E)-6-[2-(furan-2-yl)ethenyl]-1,2,4-triazin-5-ones and their biological evaluation as antitumor agents” (2013).

Tests used:
Format in all cases: functional
[1] = Cytotoxicity against Homo sapiens (human) breast cancer cells after 48 hr by SRB assay; conditions: Cancer cell lines
HCC 2998 = experiment: Cytotoxicity against Homo sapiens (human) HCC2998 cells assessed as growth inhibition at 10 uM after 24 hr; conditions: HCC 2998, 24 h, read-out: GI
NCI-H322M = experiment: Cytotoxicity against Homo sapiens (human) NCI-H322M cells assessed as growth inhibition at 10 uM after 24 hr; conditions: read-out: GI
[2] = Cytotoxicity against Homo sapiens (human) leukemia cells after 48 hr by SRB assay; conditions: Leukemia cell
SK-MEL-28 = experiment: Cytotoxicity against Homo sapiens (human) SK-MEL-28 cells assessed as growth inhibition at 10 uM after 24 hr; conditions: SK-MEL-28, 24 h, read-out: GI
SF-539 = experiment: Cytotoxicity against Homo sapiens (human) SF539 cells assessed as growth inhibition at 10 uM after 24 hr; conditions: SF-539, 24 h, read-out: GI
RXF 393 = experiment: Cytotoxicity against Homo sapiens (human) RXF393 cells assessed as growth inhibition at 10 uM after 24 hr; conditions: RXF 393, 24 h, read-out: GI
UACC-257 = experiment: Cytotoxicity against Homo sapiens (human) UACC257 cells assessed as growth inhibition at 10 uM after 24 hr; conditions: UACC-257, 24 h, read-out: GI
[3] = Cytotoxicity against Homo sapiens (human) ovarian cancer cells after 48 hr by SRB assay; conditions: Cancer cell lines
PC-3 = experiment: Cytotoxicity against Homo sapiens (human) PC3 cells assessed as growth inhibition at 10 uM after 24 hr; conditions: PC-3, 24 h, read-out: GI
SK-MEL-5 = experiment: Cytotoxicity against Homo sapiens (human) SK-MEL-5 cells assessed as growth inhibition at 10 uM after 24 hr; conditions: SK-MEL-5, 24 h, read-out: GI
RPMI-8226 = experiment: Cytotoxicity against Homo sapiens (human) RPMI8226 cells assessed as growth inhibition at 10 uM after 24 hr; conditions: RPMI-8226, 24 h, read-out: GI
HOP-92 = experiment: Cytotoxicity against Homo sapiens (human) HOP92 cells assessed as growth inhibition at 10 uM after 24 hr; conditions: HOP-92, 24 h, read-out: GI
SN12C = experiment: Cytotoxicity against Homo sapiens (human) SN12C cells assessed as growth inhibition at 10 uM after 24 hr; conditions: read-out: GI
A549 = experiment: Cytotoxicity against Homo sapiens (human) A549/ATCC cells assessed as growth inhibition at 10 uM after 24 hr; conditions: A549, 24 h, read-out: GI
DU-145 = experiment: Cytotoxicity against Homo sapiens (human) DU145 cells assessed as growth inhibition at 10 uM after 24 hr; conditions: DU-145, 24 h, read-out: GI
SF-295 = experiment: Cytotoxicity against Homo sapiens (human) SF295 cells assessed as growth inhibition at 10 uM after 24 hr; conditions: SF-295, 24 h, read-out: GI
CCRF-CEM = experiment: Cytotoxicity against Homo sapiens (human) CCRF-CEM cells assessed as growth inhibition at 10 uM after 24 hr; conditions: read-out: GI
[4] = Cytotoxicity against Homo sapiens (human) melanoma cells after 48 hr by SRB assay; conditions: Melanoma cell
786-0 = experiment: Cytotoxicity against Homo sapiens (human) 786-0 cells assessed as growth inhibition at 10 uM after 24 hr; conditions: 786-0, 24 h, read-out: GI
CAKI-1 = experiment: Cytotoxicity against Homo sapiens (human) Caki1 cells assessed as growth inhibition at 10 uM after 24 hr; conditions: CAKI-1, 24 h, read-out: GI
OVCAR-3 = experiment: Cytotoxicity against Homo sapiens (human) OVCAR3 cells assessed as growth inhibition at 10 uM after 24 hr; conditions: OVCAR-3, 24 h, read-out: GI
EKVX = experiment: Cytotoxicity against Homo sapiens (human) EKVX cells assessed as growth inhibition at 10 uM after 24 hr; conditions: read-out: GI
[5] = Cytotoxicity against Homo sapiens (human) NCI-ADR-RES cells after 48 hr by SRB assay
SNB-75 = experiment: Cytotoxicity against Homo sapiens (human) SNB75 cells assessed as growth inhibition at 10 uM after 24 hr; conditions: SNB-75, 24 h, read-out: GI
MDA-MB-435 [6] = experiment: Cytotoxicity against Homo sapiens (human) MDA-MB-435 cells after 48 hr by SRB assay; conditions: MDA-MB-435, 48 h
U-251 = experiment: Cytotoxicity against Homo sapiens (human) U251 cells assessed as growth inhibition at 10 uM after 24 hr; conditions: U-251, 24 h, read-out: GI
HL-60(TB) = experiment: Cytotoxicity against Homo sapiens (human) HL-60(TB) cells assessed as growth inhibition at 10 uM after 24 hr; conditions: HL-60, 24 h, read-out: GI
UACC-62 = experiment: Cytotoxicity against Homo sapiens (human) UACC62 cells assessed as growth inhibition at 10 uM after 24 hr; conditions: UACC-62, 24 h, read-out: GI
A498 = experiment: Cytotoxicity against Homo sapiens (human) A498 cells assessed as growth inhibition at 10 uM after 24 hr; conditions: A498, 24 h, read-out: GI
HT-29 = experiment: Cytotoxicity against Homo sapiens (human) HT-29 cells assessed as growth inhibition at 10 uM after 24 hr; conditions: HT-29, 24 h, read-out: GI
SK-OV-3 = experiment: Cytotoxicity against Homo sapiens (human) SKOV3 cells assessed as growth inhibition at 10 uM after 24 hr; conditions: SK-OV-3, 24 h, read-out: GI
HCT-116 = experiment: Cytotoxicity against Homo sapiens (human) HCT116 cells assessed as growth inhibition at 10 uM after 24 hr; conditions: HCT-116, 24 h, read-out: GI
M14 = experiment: Cytotoxicity against Homo sapiens (human) M14 cells assessed as growth inhibition at 10 uM after 24 hr; conditions: M14, 24 h, read-out: GI
HCT-15 = experiment: Cytotoxicity against Homo sapiens (human) HCT15 cells assessed as growth inhibition at 10 uM after 24 hr; conditions: HCT-15, 24 h, read-out: GI
MDA-MB-435 [7] = experiment: Cytotoxicity against Homo sapiens (human) MDA-MB-435 cells assessed as growth inhibition at 10 uM after 24 hr; conditions: MDA-MB-435, 24 h, read-out: GI
T47D = experiment: Cytotoxicity against Homo sapiens (human) T47D cells assessed as growth inhibition at 10 uM after 24 hr; conditions: read-out: GI
[8] = read-out: LC50 (the source's name)

Nc1cc(-c2ccc(Cl)cc2)nn1-c1nc(=O)c(/C=C/c2ccco2)n[nH]1
GI50 [1]: 6.39 µM
TGI [1]: 48.1 µM
CC50 [1, 8]: > 100 µM
inhibition of growth at 10 µM (HCC 2998): 51.5%
inhibition of growth at 10 µM (NCI-H322M): 75.6%
GI50 [2]: 2.71 µM
TGI [2]: 17.9 µM
CC50 [2, 8]: > 100 µM
inhibition of growth at 10 µM (SK-MEL-28): 33.6%
inhibition of growth at 10 µM (SF-539): 44.6%
inhibition of growth at 10 µM (RXF 393): 32.2%
inhibition of growth at 10 µM (UACC-257): 30.4%
GI50 [3]: 3.8 µM
TGI [3]: 43.1 µM
CC50 [3, 8]: 89.7 µM
inhibition of growth at 10 µM (PC-3): 47.4%
inhibition of growth at 10 µM (SK-MEL-5): 54%
inhibition of growth at 10 µM (RPMI-8226): 56.7%
inhibition of growth at 10 µM (HOP-92): 39.7%
inhibition of growth at 10 µM (SN12C): 31.8%
inhibition of growth at 10 µM (A549): 62.7%
inhibition of growth at 10 µM (DU-145): 36.7%
inhibition of growth at 10 µM (SF-295): 90.1%
inhibition of growth at 10 µM (CCRF-CEM): 66.1%
GI50 [4]: 6.7 µM
TGI [4]: 59.3 µM
CC50 [4, 8]: > 100 µM
inhibition of growth at 10 µM (786-0): 53.1%
inhibition of growth at 10 µM (CAKI-1): 99%
inhibition of growth at 10 µM (OVCAR-3): 62.1%
inhibition of growth at 10 µM (EKVX): 58.3%
GI50 [5]: 1.23 µM
TGI [5]: 8.11 µM
CC50 [5, 8]: 96.4 µM
inhibition of growth at 10 µM (SNB-75): 32.6%
GI50 (MDA-MB-435 [6]): 5.22 µM
TGI (MDA-MB-435 [6]): > 100 µM
CC50 (MDA-MB-435 [6]; [8]): > 100 µM
inhibition of growth at 10 µM (U-251): 49.4%
inhibition of growth at 10 µM (HL-60(TB)): 4.83%
inhibition of growth at 10 µM (UACC-62): 47.5%
inhibition of growth at 10 µM (A498): 66.2%
inhibition of growth at 10 µM (HT-29): 55.8%
inhibition of growth at 10 µM (SK-OV-3): 39.3%
inhibition of growth at 10 µM (HCT-116): 59%
inhibition of growth at 10 µM (M14): 42.6%
inhibition of growth at 10 µM (HCT-15): 61.9%
inhibition of growth at 10 µM (MDA-MB-435 [7]): 37.2%
inhibition of growth at 10 µM (T47D): 37.3%
